Experimental data taken from BindingDB's records for patent US20240174674 (Applied Pharmaceutical Science, 2024).

What was measured:
[1] = molecular target: Proto-oncogene tyrosine-protein kinase receptor Ret [G810R] (Human, UniProt P07949, G810R); experiment: HTRF Assay
[2] = molecular target: Proto-oncogene tyrosine-protein kinase receptor Ret [V804M] (Human, UniProt P07949, V804M); experiment: HTRF Assay
Chain of Proto-oncogene tyrosine-protein kinase receptor Ret [V804M] (P07949 29-1114 V804M limits assumed): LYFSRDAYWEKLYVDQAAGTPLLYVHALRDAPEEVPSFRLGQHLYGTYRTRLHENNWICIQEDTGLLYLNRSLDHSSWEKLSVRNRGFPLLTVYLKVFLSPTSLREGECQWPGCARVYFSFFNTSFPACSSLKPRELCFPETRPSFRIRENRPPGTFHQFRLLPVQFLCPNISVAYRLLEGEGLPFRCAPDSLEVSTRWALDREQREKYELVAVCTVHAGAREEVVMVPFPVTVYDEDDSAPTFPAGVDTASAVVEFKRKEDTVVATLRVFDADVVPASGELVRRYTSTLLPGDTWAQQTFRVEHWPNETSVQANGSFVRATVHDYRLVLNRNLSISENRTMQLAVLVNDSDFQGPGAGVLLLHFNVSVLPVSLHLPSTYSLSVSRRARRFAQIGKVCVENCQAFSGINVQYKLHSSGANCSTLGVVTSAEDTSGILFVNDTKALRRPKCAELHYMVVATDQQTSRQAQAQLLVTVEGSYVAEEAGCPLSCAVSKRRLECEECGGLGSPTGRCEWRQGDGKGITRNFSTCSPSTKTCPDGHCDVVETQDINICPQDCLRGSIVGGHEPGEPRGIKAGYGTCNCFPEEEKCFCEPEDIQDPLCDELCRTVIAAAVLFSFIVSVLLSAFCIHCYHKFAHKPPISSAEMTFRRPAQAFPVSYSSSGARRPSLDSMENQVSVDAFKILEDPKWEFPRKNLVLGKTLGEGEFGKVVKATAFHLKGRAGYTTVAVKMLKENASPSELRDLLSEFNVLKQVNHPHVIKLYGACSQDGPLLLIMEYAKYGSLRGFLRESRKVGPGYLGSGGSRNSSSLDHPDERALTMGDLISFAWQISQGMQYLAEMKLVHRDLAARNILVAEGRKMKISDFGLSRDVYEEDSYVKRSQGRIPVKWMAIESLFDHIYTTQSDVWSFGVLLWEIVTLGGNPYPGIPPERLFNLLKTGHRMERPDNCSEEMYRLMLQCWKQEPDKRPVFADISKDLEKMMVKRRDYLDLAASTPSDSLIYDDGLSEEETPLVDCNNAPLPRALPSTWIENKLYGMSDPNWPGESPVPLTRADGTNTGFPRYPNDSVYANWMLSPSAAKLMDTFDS

Chain of Proto-oncogene tyrosine-protein kinase receptor Ret [G810R] (P07949 29-1114 G810R limits assumed): as the sequence (P07949 29-1114 V804M limits assumed) above, with M776V, G782R counted along it

Row | IC50 [1] | IC50 [2] | Structure (SMILES)
1 | 2.6 nM |  | CCOc1cc(-c2ccc(N3C[C@H](Oc4ccccn4)[C@@H](N)C3)nc2)c2c3cn[nH]c3nn2c1 [US20240174674, Compound 31]
2 | 5 nM |  | CCOc1cc(-c2ccc(N3CC[C@H](NC(=O)c4ncc(F)cc4Cl)[C@H](O)C3)nc2)c2c3cn[nH]c3nn2c1 [US20240174674, Compound 285]
3 | 2.2 nM | 0.1 nM | CCOc1cc(-c2ccc(N3CC[C@H](NC(=O)CC(C)C)[C@H](O)C3)nc2)c2c3cn[nH]c3nn2c1 [US20240174674, Compound 40]
4 | 12.1 nM |  | CCOc1cc(-c2ccc(N3C[C@H]4C[C@@H](NC(=O)c5c(F)cccc5Cl)C[C@H]4C3)nc2)c2c3cn[nH]c3nn2c1 [US20240174674, Compound 176]
